Reference: US20060148714A1, “Therapeutic peptide-based constructs” (priority 1999, published 2006)
Values after ≈ are worked out from the molar mass of the structure shown. Where a SMILES comes first, the peptide text is derived from it. [ ]: non-standard residue; d: D form. d1Nal = N[C@H](Cc1cccc2ccccc12)C(=O)O

Tests used:
[1] = tested on: human umbilical vein endothelial cells (HUVEC); type: cell-based; conditions: for IC50: 72 h; for IC50 values, additional assays: HUVEC proliferation, purified constructs, said to be comparable to Table II (μg/mL)
Procedure: Briefly, human umbilical vein endothelial cells (HUVEC) were cultured in EGM-2 medium (Clonetics Corp., San Diego, Calif.), harvested and plated onto a 96-well culture plate. After 24 hours of quiescence, the cells were co-cultured with various peptide-based constricts in the presence of growth factors for 72 hours to test their activity. Cell proliferation was quantitated by tritiated thymidine incorporation into DNA and was expressed in counts per minute (cpm).
Details of the experimental procedures were as follows: HUVEC cells were cultured in EGM-2 media from Clonetics Corp., a subsidiary of BioWhittaker, Inc., San Diego, Calif. [EGM-2 is Endothelial Cell Basal Medium-2 (EMB-2) supplemented with growth factors (hFGF-B, VEGF, IGF-1, hEGF) ascorbic acid, heparin, GA-1000 and 2% FBS), in T75 flasks until confluent (˜4-7 days). Cells were harvested by trypsinizing the cells using 0.025% trypsin/EDTA for 5 minutes. To stop the reaction, 2-5% FBS was added. The cells were centrifuged and washed 3 times using Hank's Balanced Salt Solution (HBSS) or Dulbecco's Phosphate Buffered Saline D-PBS. The pellet was then resuspended in EBM-2 supplemented with 0.1% FBS and GA-1000 was used. The cells were counted and a cell suspension was prepared at 2×10^5/mL in EBM-2 with 0.1% FBS; cells were dispensed into a 96-well flat bottomed culture plate at 0.1 mL/well (total: ˜20,000 cells/well in 0.1% FBS-EBM-2). Incubation continued at 37° C. in 5% CO2 for 20-24 hours. The next day peptide-based constructs were prepared for testing in a 96 well plate. The supernatant was aspirated from the cell-well, replaced with EBM-2 or the testing reagent at 20 μL/well. Then, 180 μL/well of 1.12% FBS-GFS were added to make a final concentration of 1% FBS-GFS in EBM-2. This aspiration and addition was done well-by-well. ^3H-thymidine (100 μCi/mL) was added at 10 μL/well (1 μCi/well, final). Incubation continued at 37° C., 5% CO2 for 72 hours. To harvest the plate, the supernatant was aspirated off from the cell-well and then 75 μL-100 μL/well of 0.025% trypsin-EDTA was added. After incubation for 8-10 minutes at room temperature in the hood, the cells were checked and 100 μL/well of 2-5% FBS-PBS was added to stop the reaction. The plate was then harvested, dried and counted using an Inotech cell harvester (Inotech Biosystems, INB-384, Sample Processing and Filter Counting System, Lansing, Mich.).

[2] = tested on: Factor Xa neutralization by ATIII/heparin complexes; test: Chromostrate heparin anti-Factor Xa assay (heparin neutralization); type: biochemical; conditions: absorbance at 405 nm
Procedure: A Chromostrate™ assay was used to determine the effect of peptide-based constructs, including derivatized constructs, and the effect protamine sulfate (as a positive control) on Factor Xa neutralization by ATIII/heparin complexes. The assay was conducted using a Chromostrate™ heparin anti-Factor Xa assay kit (Organon Teknika Corp., Durham, N.C.). Heparin concentration was varied so that a heparin standard curve was generated. The assay measured the potentiating effect of heparin on anti-Xa activity in vitro. Solution containing heparin is incubated in the presence of ATIII with an excess of Factor Xa, forming an ATIII-Heparin-Xa complex. The remaining Xa catalyzes the release of p-nitroaniline (pNA) from the chromogenic substrate. The release of p-nitroaniline is measured at 405 nm. The absorbance obtained in inversely porportional to the concentration of heparin in the sample.
Reagents for the assay are prepared as follows. Heparin, peptide-based constructs and protamine sulfate stocks are made in saline. Stock solutions are approximately 1 mg/mL=1 μg/μL. Factor Xa reagent and substrate reagent are reconstituted with 2.0 mL purified water. Antithrombin III (ATIII) reagent is reconstituted with 1.0 mL purified water. The assay is performed in 96 well microtiter plates. Assay components are added to the microtiter wells as follows: 12.5 μl of heparin (from 0 to 10 U/mL), 25 μl of construct or protamine sulfate, 12.5 μL of ATIII (0.5 PEU/mL), 25 μL of bovine Factor Xa (14 nKat/mL), 25 μL substrate (3 μmoles/mL). The reaction is allowed to proceed for 20 minutes and then 25 μL of 0.1 M acetic acid is added. The color reaction is quantitated on a microplate reader at 405 nm. Constructs that neutralize heparin show an increase in the absorbance at 405 nm. Protamine is used as a positive control and its activity is designated as 100%. The percent (%) heparin neutralization for each peptide construct is calculated relative to the neutralization by protamine (100%), and shown in Table IV.

[3] = tested on: bFGF-induced angiogenesis; test: In vivo Matrigel angiogenesis assay (hemoglobin content of excised gel); conditions: 10 μg peptide construct per gel; hemoglobin of gel excised ten days after s.c. injection; C57BL/6J mice
Procedure: For these experiments, peptide-based constructs according to the invention were assayed for their ability to inhibit heparin-induced angiogenesis in vivo in mice. Basement membrane matrix (Matrigel®, Becton Dickinson Labware, Mountain View, Calif.) was thawed and maintained at 4° C. and angiogenic factors were added to the gel in the liquid state generally as described in Passaniti et al., 1992, Lab. Invest. 67: 519-528. Heparin sodium (Sigma, St. Louis, Mo.) was dissolved in sterile PBS to various concentrations ranging from 1,250-10,000 U/mL, and used in these experiments at 8,000 U/mL. Human recombinant basic fibroblast growth factor (bFGF; Sigma) was reconstituted into 1. % BSA in PBS to 25 μg/mL. A volume of 2.5 μL dissolved heparin solution and 4.0 μL recombinant bFGF were added to 0.5 mL Matrigel® mixture per mouse injection. Peptide-based constructs were added to this Matrigel® mixture at varying concentrations ranging from 0.5 to 50 μg/mL (final concentration) in 10 μL/0.5 mL Matrigel® aliquot per experimental animal. Ten μL sterile PBS was substituted for peptide-based constructs in Matrigel® aliquots injected into control animals.
Female C57BL/6J mice (Jackson Laboratory, Bar Barbor, Me.) at 6-8 weeks of age (maintained under NIH guidelines) were injected subcutaneously down the dorsal midline with 0.5 mL aliquots of Matrigel® prepared as described above. Ten days after injection, the Matrigel® gels were excised and placed in Drabkin's reagent (Sigma). Total protein and hemoglobin content can be determined for the gels stored in Drabkin's reagent after mechanical homogenization of the gels. Hemoglobin concentration was measured using Sigma Procedure #525 and reagents supplied by Sigma (St. Louis, Mo.) to be used with this procedure. If desired, total protein levels are determined using a microplate assay that is commercially embodied in a kit (DC Protein Assay, Bio-Rad, Richmond, Calif.).
Gels to be used for histological staining are formalin-fixed immediately after excision from the animals rather than being placed in Drabkin's reagent. Formalin-fixed gels are embedded in Tissue-Tek O.C.T. compound (Miles, Inc., Elkhart, Ind.) for frozen sectioning. Slides of frozen sections are stained with hematoxylin and eosin (as described by Humason, 1979, Animal Tissue Techniques, 4th Ed. W.H. Feeman & Co., San Francisco, Calif., Ch. 9, pp. 111-131). The effect of peptides are detected by microscopic examination of frozen stained sections for inhibition of angiogenesis relative to Matrigel® gel slices prepared without added peptides. The extent of angiogenesis inhibition is quantitated using the normalized amounts of hemoglobin found in BPI peptide-containing gel slices.
Data are presented as the means of triplicate determinations of hemoglobin concentrations from the excised gel (ISEM) with ten mice per group.

[4] = tested on: E. coli (J5 and 0111 B4), Staphylococcus aureus and Candida albicans; test: Broth and/or radial diffusion antimicrobial assays; type: cell-based
Description: Assays useful for testing a variety of biological activities of BPI protein products, including BPI-derived peptides, are described in co-owned U.S. Pat. Nos. 5,733,872; 5,763,567; 5,652,332; and 5,856,438 and corresponding PCT Publication Nos. WO 94/20532 (PCT/US94/02465) and WO 95/19372 (PCT/US94/10427) and U.S. Pat. No. 5,858,974 and corresponding PCT Publications Nos. WO 96/08509 (PCT/US95/09262) and WO 97/04008 (PCT/US96/03845), incorporated herein by reference. These activities include antimicrobial (including antibacterial and antifungal), LPS binding, LPS neutralization and additional assays of heparin binding as well as heparin neutralization.

[5] = tested on: LPS; test: RAW cell assay of LPS neutralization; type: cell-based

CC(C)C[C@@H](NC(=O)[C@H](N)CCCCN)C(=O)N[C@H](Cc1ccccc1)C(=O)N[C@H](CCCNC(=N)N)C(=O)N[C@H](Cc1cccc2ccccc12)C(=O)N[C@H](CCC(N)=O)C(=O)N[C@H](C)C(=O)N[C@H](CCCCN)C(N)=O [XMP.630, k-l-f-r-(naph-a)-q-a-k] (H-[dK][dL][dF][dR][d1Nal][dQ][dA][dK]-NH2; N-terminus and C-terminus assumed)
IC50 [1]: >25 µg/mL
IC50 values, additional assays [1]: > 50
Assay A: percent heparin neutralization relative to protamine (100%) [2]: 2.3%
Assay B: percent heparin neutralization relative to protamine (100%) [2]: 0.5%
% Inhibition [3]: 49.6%

CC(C)C[C@@H](NC(=O)[C@H](N)CCCCN)C(=O)N[C@H](Cc1ccccc1)C(=O)N[C@H](CCCNC(=N)N)C(=O)N[C@H](Cc1cccc2ccccc12)C(=O)N[C@H](CCC(N)=O)C(=O)N[C@H](C)C(=O)N[C@H](CCCCN)C(=O)N[C@H](Cc1cccc2ccccc12)C(N)=O [XMP.629, k-l-f-r-(naph-a)-q-a-k-(naph-a)] (H-[dK][dL][dF][dR][d1Nal][dQ][dA][dK][d1Nal]-NH2; N-terminus assumed)
antimicrobial activity [4]: highest antimicrobial activities
LPS neutralization activity [5]: showed activity
Assay A: percent heparin neutralization relative to protamine (100%) [2]: 69%
Assay B: percent heparin neutralization relative to protamine (100%) [2]: 49%
% Inhibition [3]: 30.8%

CC[C@@H](C)[C@@H](NC(=O)[C@@H](CCCCN)NC(=O)[C@H](NC(=O)[C@@H](CO)NC(=O)CNC(=O)[C@@H](CCCCN)NC(=O)[C@@H](Cc1cccc2ccccc12)NC(=O)[C@@H](CCCCN)NC(=O)[C@@H](C)NC(=O)[C@@H](CCC(N)=O)NC(=O)[C@@H](Cc1cccc2ccccc12)NC(=O)[C@@H](CCCNC(=N)N)NC(=O)[C@@H](Cc1ccccc1)NC(=O)[C@@H](CC(C)C)NC(=O)[C@H](N)CCCCN)[C@H](C)CC)C(N)=O [XMP.394, k-l-f-r-(naph-a)-q-a-k-(naph-a)-k-g-s-i-k-i] (H-[dK][dL][dF][dR][d1Nal][dQ][dA][dK][d1Nal][dK]G[dS][dI][dK][dI]-NH2; N-terminus assumed)
IC50 [1]: 4.3 ± 0.5 µg/mL (≈ 2.25 µM)
Assay A: percent heparin neutralization relative to protamine (100%) [2]: 143%
Assay B: percent heparin neutralization relative to protamine (100%) [2]: 133%
% Inhibition [3]: 54.6%

CC[C@@H](C)[C@@H](NC(=O)[C@@H](CO)NC(=O)CNC(=O)[C@@H](CCCCN)NC(=O)[C@@H](Cc1cccc2ccccc12)NC(=O)[C@@H](CCCCN)NC(=O)[C@@H](C)NC(=O)[C@@H](CCC(N)=O)NC(=O)[C@@H](Cc1cccc2ccccc12)NC(=O)[C@@H](CCCNC(=N)N)NC(=O)[C@@H](Cc1ccccc1)NC(=O)[C@@H](CC(C)C)NC(=O)[C@H](N)CCCCN)C(=O)N[C@H](CCCCN)C(N)=O [XMP.624, k-l-f-r-(naph-a)-q-a-k-(naph-a)-k-g-s-i-k] (H-[dK][dL][dF][dR][d1Nal][dQ][dA][dK][d1Nal][dK]G[dS][dI][dK]-NH2)
LPS neutralization activity [5]: showed activity
IC50 values, additional assays [1]: 4.9 ±0.5
Assay A: percent heparin neutralization relative to protamine (100%) [2]: 131%
Assay B: percent heparin neutralization relative to protamine (100%) [2]: 94%
% Inhibition [3]: 51.9%

CC(C)C[C@@H](NC(=O)[C@H](N)CCCCN)C(=O)N[C@H](Cc1ccccc1)C(=O)N[C@H](CCCNC(=N)N)C(=O)N[C@H](Cc1cccc2ccccc12)C(=O)N[C@H](CCC(N)=O)C(=O)N[C@H](C)C(=O)N[C@H](CCCCN)C(=O)N[C@H](Cc1cccc2ccccc12)C(=O)N[C@H](CCCCN)C(=O)NCC(N)=O [XMP.627, k-l-f-r-(naph-a)-q-a-k-(naph-a)-k-g] (H-[dK][dL][dF][dR][d1Nal][dQ][dA][dK][d1Nal][dK]G-NH2; N-terminus assumed)
antimicrobial activity [4]: highest antimicrobial activities
IC50 [1]: 5.8 ± 0.7 µg/mL (≈ 3.95 µM)
Assay A: percent heparin neutralization relative to protamine (100%) [2]: 98%
Assay B: percent heparin neutralization relative to protamine (100%) [2]: 62%
% Inhibition [3]: 77.6%
